{
  "source": "patent US20160184795A1",
  "about": "“METHODS AND SYSTEMS FOR […]” (SHELL OIL COMPANY, priority 2014, published 2016)",
  "assay": "Solubility of alkylphenol in water at digestion conditions",
  "type": "physicochemical",
  "conditions": "240 C, 15 bar N2, 30 g xylenol + 30 g deionized water, phases separated hot, consecutive samples via bottom dip tube",
  "description": "Stirring was stopped, and phases were allowed to separate while hot, before sampling of all reactor contents via consecutive withdrawal of samples via a bottom dip tube.",
  "note": "Where “and” joins values, the source holds several entries; their conditions need not be identical. Identical values can stand only once.",
  "data": [
    {"smiles": "Cc1cccc(C)c1O", "note": "[xylenol, 2,6-dimethylphenol]", "values": [
      {"measurement": "weight fraction of xylenol in water, individual samples withdrawn", "result": "18.6 weight percent and 26 weight percent and 32 weight percent"}
    ]}
  ]
}
